Experiments:
[1] = cited from earlier work; for hyperammonemia as adverse event: literature
[2] = tested on: cultured mouse spinal cord neurons; conditions: 10-30 μg/mL; cited from earlier work
carbonic anhydrase = conditions: fraction of acetazolamide inhibition; cited from earlier work
sodium channels = conditions: in vitro; cited from earlier work
[3] = upon reaching a stable dose or following dosage adjustment; cited from earlier work
[4] = human, in vivo
Excerpt: The pharmacovigilance data that were collected, reviewed and analyzed provided the following information in respect of the incidence of hyperammonemia. A total of 4 cases fulfilled the criteria of potential hyperammonemia cases. These cases were reviewed in detail for evaluation of possible safety signals. Two US cases were reported as either high ammonia levels or increased ammonia. Two Japanese cases were reported as hyperammonemia.
Of these, two (2) cases (both ZON1000262 and ZON1000346) had strong confounding factors and seem to-be unrelated to zonisamide, but the possibility of zonisamide involvement cannot be completely excluded. The two cases of hyperammonemia originated from Japan and both involved adult patients. Both cases were serious and described as life-threatening. […]
Estimates of exposure, based upon retail and mail order prescriptions, indicate that the number of unique patients taking zonisamide capsules in the U.S. is about 37,276 (total prescriptions per year/average number of prescriptions per patient per year less a calculated percentage decrease based on estimated annual dropouts) in the time between approval in 2000 and December 2002. […] Similarly, the incidences of NMS estimated herein are unlikely to be higher than calculated. Based on the exposure data and number of hyperammonemia cases, the incidence of hyperammonemia is calculated to be about […].

[5] = tested on: GABA/benzodiazepine receptor ionophore complex; conditions: in vitro; cited from earlier work
[6] = tested on: dopaminergic and serotonergic neurotransmission; conditions: in vivo microdialysis; cited from earlier work
rat hippocampal slices = conditions: 10-30 μg/mL; cited from earlier work
hepatic enzyme = conditions: cited from earlier work
T-type Ca^2+ currents = conditions: in vitro; cited from earlier work

NC(=O)N1c2ccccc2C=Cc2ccccc21 [carbamazepine]
hyperammonemia as adverse event [1]: known to cause hyperammonemia

NS(=O)(=O)Cc1noc2ccccc12 [zonisamide, 1,2-benzisoxazole-3-methanesulfonamide]
postsynaptic GABA or glutamate responses [2]: without affecting | synaptically-driven electrical activity [2]: suppresses | carbonic anhydrase inhibition compared to acetazolamide (carbonic anhydrase): 1/50 | effect on sodium channels (sodium channels): blocks sodium channels | time required to achieve steady-state levels [3]: up to two weeks | cases fulfilling the criteria of potential hyperammonemia cases [4]: 4 cases | incidence of hyperammonemia [4]: about 1:1,222,453 | binding to GABA/benzodiazepine receptor ionophore complex [5]: binds to the GABA/benzodiazepine receptor ionophore complex in an allosteric fashion | dopaminergic and serotonergic neurotransmission [6]: facilitates | neuronal or glial uptake of [3H]-GABA (rat hippocampal slices): without affecting | hepatic enzyme induction (hepatic enzyme): not known to be a hepatic enzyme inducer | effect on voltage-dependent, transient inward currents (T-type Ca2+ currents) (T-type Ca^2+ currents): reduces

CCCC(CCC)C(=O)O [valproate]
hyperammonemia as adverse event [1]: known to cause hyperammonemia | cases of hyperammonemia associated with the drug ([1]; since 1979 (O'Neil et al. 2002)): more than 30 cases

— US20050154032A1, “Methods of using zonisamide as an adjunctive therapy for partial seizures” (Eisai Co., Ltd, priority 2004, published 2005)
